Seven compounds from article PMC8706783 (Pharmaceutics, 2021) can be followed below.

For one data set, the target named is T1, CYP1A2 (Homo sapiens, UniProt P05177).
T1 sequence (P05177 1-516): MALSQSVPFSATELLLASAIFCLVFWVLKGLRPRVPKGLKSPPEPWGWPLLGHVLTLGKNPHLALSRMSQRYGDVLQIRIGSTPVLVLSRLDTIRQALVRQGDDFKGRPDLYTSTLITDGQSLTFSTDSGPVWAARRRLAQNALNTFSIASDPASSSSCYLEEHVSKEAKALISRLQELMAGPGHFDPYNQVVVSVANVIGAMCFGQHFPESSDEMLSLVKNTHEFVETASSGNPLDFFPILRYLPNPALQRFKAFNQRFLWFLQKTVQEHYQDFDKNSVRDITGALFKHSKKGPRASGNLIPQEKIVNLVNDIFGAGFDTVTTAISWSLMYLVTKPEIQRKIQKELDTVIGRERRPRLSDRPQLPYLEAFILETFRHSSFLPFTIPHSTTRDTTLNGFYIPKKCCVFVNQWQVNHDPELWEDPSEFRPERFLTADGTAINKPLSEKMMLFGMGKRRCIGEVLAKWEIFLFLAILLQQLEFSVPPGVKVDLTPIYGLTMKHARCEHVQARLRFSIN
Kind of data set: Reaction phenotyping, rCYP1A2. Particulars: recombinant CYP1A2, pH 7.4.

For a further data set, the target named is T2, CYP1A1 (Homo sapiens, UniProt P04798).
T2 sequence (P04798 1-512): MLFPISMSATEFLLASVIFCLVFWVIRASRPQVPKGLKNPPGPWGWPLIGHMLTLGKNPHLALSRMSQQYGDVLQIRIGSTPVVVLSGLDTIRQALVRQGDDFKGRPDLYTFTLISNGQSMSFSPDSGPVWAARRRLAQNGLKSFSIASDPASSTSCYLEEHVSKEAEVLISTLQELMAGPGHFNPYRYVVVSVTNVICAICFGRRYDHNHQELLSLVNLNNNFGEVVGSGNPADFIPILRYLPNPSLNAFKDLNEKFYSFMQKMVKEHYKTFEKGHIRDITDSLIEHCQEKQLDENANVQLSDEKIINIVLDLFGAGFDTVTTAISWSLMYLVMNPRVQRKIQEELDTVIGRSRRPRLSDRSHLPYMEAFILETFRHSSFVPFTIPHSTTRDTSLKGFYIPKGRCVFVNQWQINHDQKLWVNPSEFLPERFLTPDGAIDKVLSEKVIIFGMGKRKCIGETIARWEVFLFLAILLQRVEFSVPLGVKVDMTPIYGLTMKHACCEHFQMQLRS
In words: Reaction phenotyping, rCYP1A1. Particulars: recombinant CYP1A1, pH 7.4.

A further data set deals with T3, UGT1A3 (Homo sapiens, UniProt P35503).
T3 sequence (P35503 29-534): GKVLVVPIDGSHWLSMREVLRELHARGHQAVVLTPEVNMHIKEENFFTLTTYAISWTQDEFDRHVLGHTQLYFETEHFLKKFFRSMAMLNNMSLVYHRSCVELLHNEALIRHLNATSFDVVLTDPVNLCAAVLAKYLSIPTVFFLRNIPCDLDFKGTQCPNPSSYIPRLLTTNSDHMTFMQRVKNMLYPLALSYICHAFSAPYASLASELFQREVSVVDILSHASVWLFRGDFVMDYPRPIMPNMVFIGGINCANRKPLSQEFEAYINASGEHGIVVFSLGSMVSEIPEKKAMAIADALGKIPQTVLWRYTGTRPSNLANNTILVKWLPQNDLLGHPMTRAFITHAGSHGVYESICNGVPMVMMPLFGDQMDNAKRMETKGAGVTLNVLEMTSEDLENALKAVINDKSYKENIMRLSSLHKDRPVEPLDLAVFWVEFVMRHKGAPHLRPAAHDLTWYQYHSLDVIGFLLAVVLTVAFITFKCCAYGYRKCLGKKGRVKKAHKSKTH
In words: Reaction phenotyping, rUGT1A3. Particulars: recombinant UGT1A3, pH 7.4.

Another data set concerns the target T4, UGT1A4 (Homo sapiens, UniProt P22310).
T4 sequence (P22310 29-534): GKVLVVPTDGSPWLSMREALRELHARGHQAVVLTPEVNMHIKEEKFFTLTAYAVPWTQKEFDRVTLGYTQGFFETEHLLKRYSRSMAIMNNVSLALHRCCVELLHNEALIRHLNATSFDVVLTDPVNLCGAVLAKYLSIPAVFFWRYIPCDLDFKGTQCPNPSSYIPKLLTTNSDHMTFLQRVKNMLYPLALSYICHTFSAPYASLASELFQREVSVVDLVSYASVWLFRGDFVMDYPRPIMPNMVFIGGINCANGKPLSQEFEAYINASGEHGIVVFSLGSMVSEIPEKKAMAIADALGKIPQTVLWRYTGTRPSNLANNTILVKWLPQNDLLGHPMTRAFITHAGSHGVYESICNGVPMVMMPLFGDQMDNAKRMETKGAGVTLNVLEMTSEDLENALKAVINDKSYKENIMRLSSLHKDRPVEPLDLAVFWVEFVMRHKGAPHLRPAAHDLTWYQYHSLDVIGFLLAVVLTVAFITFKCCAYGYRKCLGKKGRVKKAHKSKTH
Kind of data set: Reaction phenotyping, rUGT1A4. The settings on record: recombinant UGT1A4, pH 7.4.

A further data set has as its target T5, UGT1A8 (Homo sapiens, UniProt Q9HAW9).
T5 sequence (Q9HAW9 26-530): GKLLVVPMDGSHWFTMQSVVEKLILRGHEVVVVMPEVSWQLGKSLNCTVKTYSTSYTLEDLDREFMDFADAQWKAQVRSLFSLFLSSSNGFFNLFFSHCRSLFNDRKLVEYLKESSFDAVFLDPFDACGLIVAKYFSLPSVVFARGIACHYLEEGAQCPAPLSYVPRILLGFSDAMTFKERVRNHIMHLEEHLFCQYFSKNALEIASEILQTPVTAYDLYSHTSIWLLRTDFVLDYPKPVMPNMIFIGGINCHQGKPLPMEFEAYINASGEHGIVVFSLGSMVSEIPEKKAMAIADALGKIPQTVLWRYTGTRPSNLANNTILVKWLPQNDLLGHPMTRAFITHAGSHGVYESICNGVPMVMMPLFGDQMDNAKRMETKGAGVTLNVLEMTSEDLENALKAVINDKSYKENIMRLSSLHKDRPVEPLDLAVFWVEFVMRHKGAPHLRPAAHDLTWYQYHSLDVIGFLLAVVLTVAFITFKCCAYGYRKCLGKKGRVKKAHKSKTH
In words: Reaction phenotyping, rUGT1A8. The settings on record: recombinant UGT1A8, pH 7.4.

The nature of data set [1]: Reaction phenotyping, HLM with UDPGA. Particulars: human, human liver microsomes, pH 7.4.
Another data set concerns the target T6, UGT1A6 (Homo sapiens, UniProt P19224).
T6 sequence (P19224 27-532): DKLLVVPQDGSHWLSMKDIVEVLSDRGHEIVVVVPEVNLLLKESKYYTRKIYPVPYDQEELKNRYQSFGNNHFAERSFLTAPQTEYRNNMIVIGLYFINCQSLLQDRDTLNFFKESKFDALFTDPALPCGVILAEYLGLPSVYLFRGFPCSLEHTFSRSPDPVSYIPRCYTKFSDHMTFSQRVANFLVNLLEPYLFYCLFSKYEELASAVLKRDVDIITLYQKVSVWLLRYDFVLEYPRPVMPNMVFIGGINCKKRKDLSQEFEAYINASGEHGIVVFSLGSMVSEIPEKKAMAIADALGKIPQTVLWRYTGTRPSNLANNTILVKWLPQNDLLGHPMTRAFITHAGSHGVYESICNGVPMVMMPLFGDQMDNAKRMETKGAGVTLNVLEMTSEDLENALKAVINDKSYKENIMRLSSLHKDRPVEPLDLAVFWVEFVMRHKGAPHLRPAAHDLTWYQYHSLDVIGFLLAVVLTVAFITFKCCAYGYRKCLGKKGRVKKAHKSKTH
Kind of data set: Reaction phenotyping, rUGT1A6. The settings on record: recombinant UGT1A6, pH 7.4.

The target of the next data set is T7, UGT1A7 (Homo sapiens, UniProt Q9HAW7).
T7 sequence (Q9HAW7 26-530): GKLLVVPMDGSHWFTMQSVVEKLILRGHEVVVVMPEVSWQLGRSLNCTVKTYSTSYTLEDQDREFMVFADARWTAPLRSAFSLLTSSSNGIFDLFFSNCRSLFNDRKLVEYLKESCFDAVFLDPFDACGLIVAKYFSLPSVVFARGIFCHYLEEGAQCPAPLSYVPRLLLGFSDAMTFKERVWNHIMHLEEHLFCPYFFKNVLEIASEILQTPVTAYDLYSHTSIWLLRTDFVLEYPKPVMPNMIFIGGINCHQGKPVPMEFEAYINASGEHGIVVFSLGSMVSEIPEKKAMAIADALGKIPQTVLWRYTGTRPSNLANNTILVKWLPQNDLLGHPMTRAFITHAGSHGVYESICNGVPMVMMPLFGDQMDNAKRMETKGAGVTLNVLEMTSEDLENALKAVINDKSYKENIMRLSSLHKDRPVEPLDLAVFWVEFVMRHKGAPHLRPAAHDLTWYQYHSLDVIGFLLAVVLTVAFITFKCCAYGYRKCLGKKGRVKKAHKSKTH
In words: Reaction phenotyping, rUGT1A7. The settings on record: recombinant UGT1A7, pH 7.4.

The target in the next data set is T8, UGT2B7 (Homo sapiens, UniProt P16662).
T8 sequence (P16662 24-529): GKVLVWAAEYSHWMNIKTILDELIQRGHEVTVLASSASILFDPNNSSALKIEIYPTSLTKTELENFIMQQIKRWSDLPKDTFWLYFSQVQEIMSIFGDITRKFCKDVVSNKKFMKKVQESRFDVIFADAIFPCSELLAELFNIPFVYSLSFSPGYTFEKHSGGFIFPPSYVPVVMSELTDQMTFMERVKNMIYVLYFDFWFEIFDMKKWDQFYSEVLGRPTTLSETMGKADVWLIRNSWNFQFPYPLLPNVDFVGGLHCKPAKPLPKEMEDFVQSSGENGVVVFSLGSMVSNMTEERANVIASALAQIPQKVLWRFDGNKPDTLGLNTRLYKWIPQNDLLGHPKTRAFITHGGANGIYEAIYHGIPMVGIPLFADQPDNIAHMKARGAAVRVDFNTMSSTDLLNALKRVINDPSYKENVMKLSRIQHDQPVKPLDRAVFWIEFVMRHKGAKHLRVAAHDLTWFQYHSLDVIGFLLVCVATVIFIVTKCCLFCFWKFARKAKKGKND
In words: Reaction phenotyping, rUGT2B7. The settings on record: recombinant UGT2B7, pH 7.4.

The target in the next data set is T9, UGT1A9 (Homo sapiens, UniProt O60656).
T9 sequence (O60656 26-530): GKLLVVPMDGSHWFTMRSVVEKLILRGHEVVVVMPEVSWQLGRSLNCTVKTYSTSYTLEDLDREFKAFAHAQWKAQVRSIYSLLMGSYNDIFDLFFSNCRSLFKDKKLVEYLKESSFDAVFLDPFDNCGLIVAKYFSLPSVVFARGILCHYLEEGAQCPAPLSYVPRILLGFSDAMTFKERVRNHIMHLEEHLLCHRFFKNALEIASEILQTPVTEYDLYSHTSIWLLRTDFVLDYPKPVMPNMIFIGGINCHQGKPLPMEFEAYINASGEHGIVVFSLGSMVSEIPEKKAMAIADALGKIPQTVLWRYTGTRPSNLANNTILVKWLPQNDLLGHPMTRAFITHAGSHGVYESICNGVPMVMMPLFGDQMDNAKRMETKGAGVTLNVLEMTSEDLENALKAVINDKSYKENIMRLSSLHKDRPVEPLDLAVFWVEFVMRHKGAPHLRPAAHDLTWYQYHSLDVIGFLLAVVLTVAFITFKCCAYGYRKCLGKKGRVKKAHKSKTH
In words: Reaction phenotyping, rUGT1A9. Particulars: recombinant UGT1A9, pH 7.4.

In a further data set the target is rCYP1B1 (Homo sapiens, UniProt Q16678). The settings on record: recombinant enzyme, 1 h.
rCYP1B1, sequence (Q16678 whole entry): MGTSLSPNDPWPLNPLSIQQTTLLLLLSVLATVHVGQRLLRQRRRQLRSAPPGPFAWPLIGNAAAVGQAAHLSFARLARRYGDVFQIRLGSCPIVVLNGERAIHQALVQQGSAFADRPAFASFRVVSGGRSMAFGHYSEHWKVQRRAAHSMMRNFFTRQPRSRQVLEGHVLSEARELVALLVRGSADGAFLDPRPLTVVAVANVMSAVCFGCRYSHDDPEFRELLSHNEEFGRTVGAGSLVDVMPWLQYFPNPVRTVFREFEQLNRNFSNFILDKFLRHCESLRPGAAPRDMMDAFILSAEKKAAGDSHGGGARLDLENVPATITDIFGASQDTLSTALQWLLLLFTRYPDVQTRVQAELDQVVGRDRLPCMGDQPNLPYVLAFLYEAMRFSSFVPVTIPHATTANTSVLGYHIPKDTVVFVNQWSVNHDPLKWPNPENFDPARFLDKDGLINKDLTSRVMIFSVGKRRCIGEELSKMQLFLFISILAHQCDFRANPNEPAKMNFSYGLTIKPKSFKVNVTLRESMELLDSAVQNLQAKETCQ

`CCOc1ccc(NC(C)=O)cc1` [Phenacetin]: the share remaining at 1 h, 10 µM at CYP1A2 turned out to be 65.8%; on CYP1A1 it was 41%.
For the compound `C[C@H](CCC(=O)O)[C@H]1CC[C@H]2[C@@H]3[C@H](O)C[C@@H]4C[C@H](O)CC[C@]4(C)[C@H]3CC[C@]12C` [Chenodeoxycholic acid], the fraction remaining at 1 h, 2 µM on UGT1A3 stood at 59.4%.
With `CN1CCN(CCCN2c3ccccc3Sc3ccc(C(F)(F)F)cc32)CC1` [Trifluoperazine], the share remaining at 1 h, 0.5 µM at UGT1A4 was 73.1%.
Turning to `Cc1cc(=O)oc2cc(O)ccc12` [4-methylumbelliferone], the share remaining at 1 h, 2 µM at UGT1A8 was 49.9%; in data set [1], 0.82%; on UGT1A6, 5.26%. Further, on UGT1A7, the share remaining at 1 h, 10 µM amounted to 70.9%.
`Cc1cn([C@H]2C[C@H](N=[N+]=[N-])[C@@H](CO)O2)c(=O)[nH]c1=O` [Zidovudine]: the share remaining at 1 h, 10 µM on UGT2B7 was determined as 74.4%.
Take `COc1c(C)c2c(c(O)c1C/C=C(\C)CCC(=O)O)C(=O)OC2` [Mycophenolic acid]: at UGT1A9, the fraction remaining at 1 h, 0.2 µM amounted to 0%.
With `CCOc1ccc2nc3ccc(=O)cc-3oc2c1` [7-ethoxyresorufin], at rCYP1B1, the “Known Substrate (% Remaining at 60 min)” value is recorded as 7-ethoxyresorufin (35.11) %.

What is called share remaining is the share of the starting amount still present when the sample was taken.
